Data on one compound can be found in patent publication US6878522B2, “Methods for the identification of compounds useful for the treatment of disease states mediated by prostaglandin D2” (priority 2000, dated 2005).

Entries after “also recorded” stand apart in the source; their conditions may differ.

For orientation: EC50 means the concentration needed to bring the measured effect to its halfway point. For orientation: IC50 means the point on the concentration scale where inhibition reaches its midpoint. As usually defined, the Ki is the dissociation constant of the complex between target and ligand, obtained from inhibition or displacement.

The target of assay [1] is T1, CRTH2 (Homo sapiens, UniProt Q9Y5Y4).
T1 construct: prolactin (prolac) signal peptide (N); expressed in transfected cells; host or cells: 300-19 cells (transformed murine pre-B lymphocytes)
T1 sequence (Q9Y5Y4 1-395): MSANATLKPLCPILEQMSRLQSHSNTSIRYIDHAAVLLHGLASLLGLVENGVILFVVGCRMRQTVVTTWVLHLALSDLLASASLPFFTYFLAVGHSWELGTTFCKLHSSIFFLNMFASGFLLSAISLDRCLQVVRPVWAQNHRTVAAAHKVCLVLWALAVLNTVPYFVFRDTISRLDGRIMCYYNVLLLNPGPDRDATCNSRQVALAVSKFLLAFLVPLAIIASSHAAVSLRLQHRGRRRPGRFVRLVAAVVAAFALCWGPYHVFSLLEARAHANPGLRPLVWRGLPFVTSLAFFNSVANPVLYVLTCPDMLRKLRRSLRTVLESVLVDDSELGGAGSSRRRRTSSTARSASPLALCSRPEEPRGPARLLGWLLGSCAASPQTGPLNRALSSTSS
Put plainly: [Ca2+]i mobilization assay in 300-19 cells expressing CRTH2. Particulars: CRTH2 stable cell line (300-19 transfectants). It is filed as cell-based.
Procedure: The ratio of fluorescence produced by the calcium-bound dye to that produce by the unbound dye is used to estimate the intracellular calcium concentration. In one embodiment, for example, the following method can be used. Cells that express CRTH2 are collected, and resuspended in fresh media at ˜2×10^5/ml the day before performing the calcium flux assay. Cells are incubated at 37° C. for not longer than 20-30 minutes, and then spun down and resuspended in 50 ml fresh PTI buffer (Hank's Buffer, pH 7.2-7.4; 10 mM Hepes; 1.6 mM CaCl2) containing Indo-1 AM, pre-warmed to 37° C., at a concentration of 10 million per ml. Cells are excited, and fluorescence is measured using a fluorimeter (Photon Technology Corporation, International). After the readout has stabilized, the time axis is reset, and PGD2 is added at a specific time point (e.g., 20 seconds). After response, the following reagents are added to the cuvette, to release and chelate total calcium, in the following order: 20 μl of 18% Triton X-100, 20 μl of 3M Tris, pH 8.5, and 20 μl of 0.5 M EGTA, pH 8.5. The experiment is repeated in the presence and the absence of a test compound.
Using 300-19 cells (transformed pre-B lymphocytes) expressing CRTH2, a number of mast cell and non-mast cell-derived mediators were screened in a [Ca^2+]i mobilization assay. […]

In assay [2] the target is T1, CRTH2. Put plainly: Competition with 3H-PGD2 binding at the CRTH2 receptor (Examples 6-9). Particulars: control, cold PGD2, 8 trials. As for the experimental part:
To directly determine the binding affinity of CRTH2 for PGD2, the following binding assay was used. Transfected and parental 300-19 cells were washed twice at room temperature with assay buffer, and resuspended at a concentration of 2×10^7 cells/ml. Using a 96-well U-bottom polypropylene plate (Costar, Corning Inc., Acton, Mass.), the assay was set up as follows: 50 μl of vehicle (0.3% DMSO in assay buffer, total wells) or of […] cold PGD2 (NS wells); 50 μl cells (2×10^7 cells/ml for 10^6 cells per well); 50 μl 6 nM [3H]-PGD2. The plate was allowed to incubate for 20 min at RT before centrifugation (2800 rpm, Sorval RT6000, 5 min, 4° C.). The plate was harvested (Packard Unifilter plate GF/C, previously soaked in 3% PEI for at least 1 hr) with cold assay buffer using a Packard Filtermate Cell Harvester (6×150 μl buffer wash per well). The filterplate was dried overnight. After the addition of 50 μl scintillation fluid (Packard Microscint 0), the plate was counted in a Packard Topcount scintillation counter (1 min per well). […] The solutions of labeled PGD2 and unlabeled “cold” PGD2 were prepared as follows: 10 μl of [^3H]-PGD2 (Amersham lot # TRK734 162 Ci/mmol, 0.1 Ci/ml in methanol: water: acetonitrile (3:2:1), 617 nM) per ml assay buffer was used to prepare a solution of [^3H]-PGD2 at a concentration of 6 nM (50 μl/well for final conc. of 2 nM); cold PGD2 (Biomol #PG-005, lot # P4653) was dissolved in DMSO for a stock of 10 mM (stored at −20° C.). The 10 mM stock was diluted 3:1000 to obtain a final concentration of […] (50 μl/well for final conc. of […]). Assay buffer: Hank's balanced saline supplemented with HEPES and sodium bicarbonate: 100 ml/L of 10× Hank's Balanced saline (with Ca^+2, Mg^+2); 10 ml/L of 1M HEPES; 4.7 ml/L of 7.5% Sodium Bicarbonate.
In the assay, the capacity of each D-ring compound to compete with binding of ^3H-PGD2 was measured at both the CRTH2 and DP receptors, and an IC50 value (in μM) was determined. […] The binding assay procedure of Example 1 was used. Preferably, the ratio of IC50 at CRTH2 to IC50 at DP is less than about twenty, and more preferably is […].

The subject of assay [3] is human activated T-lymphocytes. Put plainly: Chemotaxis of human T lymphocytes (Boyden chamber). The conditions noted are these: anti-CD3 or anti-CD3 and anti-CD28 stimulated T cells. It is filed as cell-based. The method, then:
(§1) The chemotactic response of human T lymphocytes to PGD2, murine MDC and murine mSDF was also assayed. Chemotaxis was determined using a 48-well Boyden chamber (Neuroprobe, Cabin John, Md.), and 3.0 μm polycarbonate filters. Cells were resuspended (3-3.5×10^6 cells/ml) in RPMI 1640 supplemented with 10 mM HEPES and 1 mg/ml bovine serum albumin (Sigma, St. Louis, Mo.), and placed into the upper wells of the chamber. The compound to be tested was placed in the lower wells. The chambers were incubated for 90-120 minutes at 37° C. in a humidified CO2 incubator. At the end of the incubation period, the number of migrating cells on the filter (expressed per high power field) were enumerated microscopically. […] In FIG. 4, the chemotactic response of human basophils to PGD2 and C5a is shown.

In a further assay the test system is human basophils. Put plainly: Chemotaxis of human basophils. Type of assay: cell-based. As for the experimental part:
as §1

A further assay concerns the target T2, TP receptor (Homo sapiens, UniProt P21731).
T2 sequence (P21731 1-343): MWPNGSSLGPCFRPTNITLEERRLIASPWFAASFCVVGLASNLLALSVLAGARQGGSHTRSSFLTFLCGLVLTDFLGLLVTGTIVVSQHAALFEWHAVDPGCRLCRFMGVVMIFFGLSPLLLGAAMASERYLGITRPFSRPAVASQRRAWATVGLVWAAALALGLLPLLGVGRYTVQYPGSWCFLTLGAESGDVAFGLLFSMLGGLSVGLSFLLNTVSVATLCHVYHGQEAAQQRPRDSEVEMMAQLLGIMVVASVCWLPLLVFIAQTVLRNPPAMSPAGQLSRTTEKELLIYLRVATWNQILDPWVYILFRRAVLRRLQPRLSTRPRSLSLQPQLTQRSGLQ
The conditions noted are these: cited from earlier work.

`CCCCC[C@H](O)/C=C/[C@H]1C(=O)C[C@H](O)[C@@H]1C/C=C\CCCC(=O)O` [PGD2, prostaglandin D2] gave an EC50 at CRTH2 [1] of 15 nM. Besides, at CRTH2 [2], the IC50 worked out at 10.7 nM. In addition, the “chemotactic response of human T lymphocytes” value in assay [3] is on record as “respond specifically to PGD2; also recorded: responsive to PGD2”. For the same compound, the “chemotactic response of human basophils” value with human basophils is “responsive to PGD2”. The Ki at TP receptor is 75 µM.
